ChEMBL document CHEMBL1201862, “PubChem BioAssay data set” (2004)
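Step 1: Grow cells in 96-well plates. Step 2: Expose to compound for 48 hours at 5 concentrations. Step 3: Interpolate endpoints linearly; if unreached, use highest concentration. GI50 marks 50% less growth.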 The source made the active and inactive calls. Cut-off read from the data, not from the text of the source: active = GI50 up to about 1.1 µM and inactive = higher.

Key:
Test in all cases: growth of human tumour cells (NCI), 48 h
A549 = tested on: A549
DU-145 = tested on: DU-145
HL-60 = tested on: HL-60
HT-29 = tested on: HT-29
Hs-578T = tested on: Hs-578T
IGROV-1 = tested on: IGROV-1
KM12 = tested on: KM12
MDA-MB-231 = tested on: MDA-MB-231
NCI-H23 = tested on: NCI-H23
NCI-H460 = tested on: NCI-H460
NCI/ADR-RES = tested on: NCI/ADR-RES
PC-3 = tested on: PC-3
RPMI-8226 = tested on: RPMI-8226
RXF 393 = tested on: RXF 393
SF-295 = tested on: SF-295
SF-539 = tested on: SF-539
SK-OV-3 = tested on: SK-OV-3
SNB-19 = tested on: SNB-19
T47D = tested on: T47D
UO-31 = tested on: UO-31

Compound | GI50 (A549) | GI50 (DU-145) | GI50 (HL-60) | GI50 (HT-29) | GI50 (Hs-578T) | GI50 (IGROV-1) | GI50 (KM12) | GI50 (MDA-MB-231) | GI50 (NCI-H23) | GI50 (NCI-H460) | GI50 (NCI/ADR-RES) | GI50 (PC-3) | GI50 (RPMI-8226) | GI50 (RXF 393) | GI50 (SF-295) | GI50 (SF-539) | GI50 (SK-OV-3) | GI50 (SNB-19) | GI50 (T47D) | GI50 (UO-31)
COC(=O)C1=C(C(=O)OC)N(c2ccc(OC)cc2[N+](=O)[O-])C(c2ccc(C)cc2)=CC1c1ccc(OC)cc1OC (configuration not stated) | 7.89 µM (inactive) | 25.2 µM (inactive) | 3.8 µM (inactive) | 6.53 µM (inactive) | 31.7 µM (inactive) | 13.3 µM (inactive) | 4.27 µM (inactive) | 23.3 µM (inactive) | 22.4 µM (inactive) | 24.5 µM (inactive) | 22.9 µM (inactive) | 47.6 µM (inactive) | 2.07 µM (inactive) | 5.25 µM (inactive) | 29 µM (inactive) | 6.61 µM (inactive) | 25.8 µM (inactive) | 34.7 µM (inactive) | 11.1 µM (inactive) | 11.7 µM (inactive)
O=C1c2ccccc2C(=O)c2c1nc1ccccc1c2-c1cncc(-c2c3c(nc4ccccc24)C(=O)c2ccccc2C3=O)c1 | 3.29 µM (inactive) | 4.09 µM (inactive) | 1.75 µM (inactive) | 8.49 µM (inactive) | 3.69 µM (inactive) | 0.0596 µM (active) | 3.61 µM (inactive) | 9.31 µM (inactive) | 1.18 µM (inactive) | 2.43 µM (inactive) | 4.13 µM (inactive) | 2.15 µM (inactive) | 0.361 µM (active) | 12.1 µM (inactive) | 8.32 µM (inactive) | 6.46 µM (inactive) | > 77.1 µM (inactive) | 23.8 µM (inactive) | 2.33 µM (inactive) | 1.55 µM (inactive)
CC(=O)Nc1ccc2c3c(cc(O)c2c1)N(C(=O)CCCCCCC(=O)N1CC(CCl)c2c1cc(O)c1cc(NC(C)=O)ccc21)CC3CCl (configuration not stated) | 0.0113 µM (active) | < 0.01 µM (active) | < 0.01 µM (active) | 0.0172 µM (active) | 0.0306 µM (active) | 0.015 µM (active) | 0.0249 µM (active) | 0.0203 µM (active) | < 0.01 µM (active) | < 0.01 µM (active) | 0.673 µM (active) | < 0.0119 µM (active) | 0.059 µM (active) | < 0.01 µM (active) | < 0.01 µM (active) | < 0.01 µM (active) | 0.017 µM (active) | < 0.01 µM (active) | < 0.01 µM (active) | 0.0509 µM (active)
N#Cc1cccc(Nc2ccccc2SSc2ccccc2Nc2cccc(C#N)c2)c1 | 11.3 µM (inactive) | 19 µM (inactive) | 4.76 µM (inactive) | 11.4 µM (inactive) | 6.97 µM (inactive) | 8.65 µM (inactive) | 9.46 µM (inactive) | 12.2 µM (inactive) | 11.7 µM (inactive) | 7.71 µM (inactive) | 8.79 µM (inactive) | 4.82 µM (inactive) | 3.93 µM (inactive) | > 10 µM (inactive) | 13.2 µM (inactive) | 8.79 µM (inactive) | 13.5 µM (inactive) | 7.76 µM (inactive) | 12.3 µM (inactive) | 4.97 µM (inactive)
Cc1cc(Cl)ccc1OCC(=O)Nc1nc(N)nc(N)n1 | > 100 µM (inactive) | > 100 µM (inactive) | > 100 µM (inactive) | > 100 µM (inactive) | > 100 µM (inactive) | > 100 µM (inactive) | > 100 µM (inactive) | > 100 µM (inactive) | > 100 µM (inactive) | > 100 µM (inactive) | > 100 µM (inactive) | > 100 µM (inactive) | > 100 µM (inactive) | > 100 µM (inactive) | > 100 µM (inactive) | > 100 µM (inactive) | > 100 µM (inactive) | > 100 µM (inactive) | > 100 µM (inactive) | 40.7 µM (inactive)
N=C1C=C(N)C(=O)c2[nH]c(=O)ccc21 | 2.48 µM (inactive) | 8.13 µM (inactive) | 2.63 µM (inactive) | 2.37 µM (inactive) | 4.42 µM (inactive) | 1.96 µM (inactive) | 1.82 µM (inactive) | 1.91 µM (inactive) | 2.23 µM (inactive) | 2.92 µM (inactive) | 2.27 µM (inactive) | 1.36 µM (inactive) | 2.15 µM (inactive) | 1.87 µM (inactive) | 17.3 µM (inactive) | 2.21 µM (inactive) | 13.8 µM (inactive) | 2.02 µM (inactive) | 1.76 µM (inactive) | 
CCSc1nnc(Sc2c3ccccc3nc3ccccc23)s1 | > 60.7 µM (inactive) | 15.2 µM (inactive) | 0.692 µM (active) | 7.67 µM (inactive) | 32.7 µM (inactive) | 17.3 µM (inactive) | 24.8 µM (inactive) | 18.8 µM (inactive) | 20.2 µM (inactive) | 19.6 µM (inactive) | 19.7 µM (inactive) | 20.3 µM (inactive) | 3.91 µM (inactive) | 17.2 µM (inactive) | 99.3 µM (inactive) | 7.94 µM (inactive) | > 78 µM (inactive) | 44.2 µM (inactive) | 4.22 µM (inactive) | 10.7 µM (inactive)
C=C1CC2(CC(c3ccccc3Cl)OC(c3ccccc3Cl)C2)OC1=O (configuration not stated) | 7.74 µM (inactive) | 6.87 µM (inactive) | 1.05 µM (active) | 2.55 µM (inactive) | 1.88 µM (inactive) | 2.02 µM (inactive) | 2.33 µM (inactive) | 1.85 µM (inactive) | 3.83 µM (inactive) | 5.08 µM (inactive) | 3.57 µM (inactive) | 2.89 µM (inactive) | 0.752 µM (active) | 2.12 µM (inactive) | 8.97 µM (inactive) | 1.96 µM (inactive) | 6.87 µM (inactive) | 15.2 µM (inactive) | 1.68 µM (inactive) | 5.89 µM (inactive)
CCCCCCCCCCCCc1ccsc1-c1ccc(-c2ccc(-c3sc(-c4cc(CCCCCCCCCCCC)c(-c5ccc(-c6ccc(-c7sccc7CCCCCCCCCCCC)s6)s5)s4)cc3CCCCCCCCCCCC)s2)s1 | > 100 µM (inactive) | > 100 µM (inactive) | 19.3 µM (inactive) | > 100 µM (inactive) | > 100 µM (inactive) | > 100 µM (inactive) | > 100 µM (inactive) | > 100 µM (inactive) | > 100 µM (inactive) | > 100 µM (inactive) | > 100 µM (inactive) | > 100 µM (inactive) | > 100 µM (inactive) | 83.4 µM (inactive) | > 100 µM (inactive) | > 100 µM (inactive) | > 100 µM (inactive) | > 100 µM (inactive) | > 100 µM (inactive) | > 100 µM (inactive)
c1ccc([P+](Cc2ccc(C[P+](c3ccccc3)(c3ccccc3)c3ccccc3)cc2)(c2ccccc2)c2ccccc2)cc1 | 45.7 µM (inactive) | 86.3 µM (inactive) | 55.1 µM (inactive) | 25 µM (inactive) | 32.4 µM (inactive) | 20.4 µM (inactive) | 41.8 µM (inactive) | 61.8 µM (inactive) | 32.7 µM (inactive) | 12.4 µM (inactive) | > 100 µM (inactive) | 40.9 µM (inactive) | 43 µM (inactive) | 61.4 µM (inactive) | 35.6 µM (inactive) | 31.2 µM (inactive) | > 100 µM (inactive) | 26.4 µM (inactive) | > 100 µM (inactive) | 18.4 µM (inactive)
COc1cc(OC)cc(C(=O)NC2=C(Cl)C(=O)c3ccccc3C2=O)c1 | 4.34 µM (inactive) | 4.58 µM (inactive) | 0.189 µM (active) | 4.67 µM (inactive) | 3.3 µM (inactive) | 2.18 µM (inactive) | 1.62 µM (inactive) | 4.08 µM (inactive) | 2.43 µM (inactive) | 2.34 µM (inactive) | 2.28 µM (inactive) | 1.23 µM (inactive) | 0.706 µM (active) | 1.04 µM (active) | 2.92 µM (inactive) | 4.45 µM (inactive) | 2.49 µM (inactive) | 5.5 µM (inactive) | 1.46 µM (inactive) | 3.15 µM (inactive)
COc1cccc2c1C(=O)c1ccc3cc(CO)cc(O)c3c1C2=O | 0.624 µM (active) | 0.733 µM (active) | 0.171 µM (active) | 0.813 µM (active) | 3.7 µM (inactive) | 1.38 µM (inactive) | 0.893 µM (active) | 0.594 µM (active) | 0.288 µM (active) | 0.304 µM (active) | 0.515 µM (active) | 0.215 µM (active) | 0.74 µM (active) | 1.34 µM (inactive) | 3.03 µM (inactive) | 0.329 µM (active) | 2.33 µM (inactive) | 1.79 µM (inactive) | 1.72 µM (inactive) | 0.982 µM (active)
N=c1oc2ccc3ccccc3c2cc1-c1nc(O)c2ccccc2n1 | 20.7 µM (inactive) | 36.4 µM (inactive) | 8.73 µM (inactive) | 13 µM (inactive) | 20.5 µM (inactive) | 16 µM (inactive) | 11 µM (inactive) | 24.1 µM (inactive) |  | 32.8 µM (inactive) | 14.2 µM (inactive) | 13.4 µM (inactive) | 42.6 µM (inactive) | 10.6 µM (inactive) | 30.2 µM (inactive) | 31.2 µM (inactive) | 19.9 µM (inactive) | 27.6 µM (inactive) | 30.7 µM (inactive) | 3.23 µM (inactive)
Nc1ccc2[nH]cc(CCC(=O)O)c2c1 | > 100 µM (inactive) | > 100 µM (inactive) | 27.3 µM (inactive) | > 100 µM (inactive) | > 100 µM (inactive) | > 100 µM (inactive) | > 100 µM (inactive) | > 100 µM (inactive) | > 100 µM (inactive) |  | > 100 µM (inactive) | > 100 µM (inactive) | > 100 µM (inactive) | > 100 µM (inactive) | > 100 µM (inactive) | > 100 µM (inactive) | > 100 µM (inactive) | > 100 µM (inactive) | > 100 µM (inactive) | > 100 µM (inactive)
